By melting point is commonly meant the temperature, or range, at which the solid turns liquid.

Drawing on the Bradley open melting point set (2014), this text covers melting point for 88 molecules.

Values joined by “and” are separate entries in the source; they are usually repeats but may differ in a detail not shown here. Equal entries are not always repeated.

On to `[C-]#[N+]CS(=O)(=O)c1ccc(C)cc1` [p-toluenesulfonylmethyl isocyanide], for which the melting point came to 112 °C. Next, `C/C(C)=CCC` [2-Methylpent-2-ene]: -135 °C; `CC(=O)c1ccc(S(=O)(=O)NC(=O)NC2CCCCC2)cc1` [Acetohexamide]: 189 °C; `Nc1ccc(-c2ccc(N)cc2N)c(N)c1` [biphenyl-2,2',4,4'-tetramine]: 158 °C. The result for `CNCCCC12CCC(c3ccccc31)c1ccccc12` [maprotiline] reads 92 °C; that for `CCCCCCn1c(=O)c2c(ncn2C)n(C)c1=O` [1-n-hexyltheobromine], 81 °C; that for `CC(C)(CO)CO` [2,2-dimethyl-1,3-propanediol], 128 °C and 126 °C. Next, `CC(=O)Nc1ccc(O)cc1` [4-acetylaminophenol]: 170 °C.

Molecule `O=[N+]([O-])c1ccc(Oc2ccc(C(F)(F)F)cc2[N+](=O)[O-])cc1` [fluorodifen] came in with a melting point of 94 °C. `C=CCCC(=O)O` [4-pentenoic acid] had a melting point of -22 °C. Next, `N#CCOc1ccccc1Br` [2-bromophenoxyacetonitrile]: 49 °C; `O=[N+]([O-])c1c(Cl)cc(Cl)cc1Cl` [1,3,5-Trichloro-2-nitrobenzene]: 72 °C; `O=C1OC2(c3ccc(O)cc3Oc3cc(O)ccc32)c2ccccc21` [Fluorescein]: 315 °C. Next, `O=[N+]([O-])c1ccc(F)c([N+](=O)[O-])c1` [1-fluoro-2,4-dinitrobenzene]: 27 °C; `CC12CCC(C(=O)/C(=C\c3ccccc3[N+](=O)[O-])C1=O)C2(C)C` (stereo not drawn): 141 °C; `O=C(O)c1cc(Cl)ccc1O` [5-chlorosalicylic acid]: 174 °C. The result for `c1ccc(-c2csc(-c3ccccn3)n2)cc1` [4-phenyl-2-(2-pyridyl)thiazole] reads 57 °C; that for `CC(C)(C)OC(=O)N1CCC[C@H]1C(=O)O` [N-boc-L-proline], 134 °C; that for `O=C(O)[C@@H]1[C@H](C(=O)O)[C@H]2C=C[C@@H]1C2` [(1R,2R,3S,4S)-Bicyclo[2.2.1]hept-5-ene-2,3-dicarboxylic acid], 150 °C.

Take `CC(/C=C(\C)C#Cc1ccccc1)=N/Nc1ccc([N+](=O)[O-])cc1[N+](=O)[O-]`: the melting point was 198 °C. The result for `Cc1cc(-c2ccc(NC=O)c(C)c2)ccc1NC=O` [N,N'-(3,3'-dimethylbiphenyl-4,4'-diyl)diformamide] reads 268 °C. The result for `CC(C)(C)c1ccc(C2CCC3(CC2)Cc2ccc(O)cc2C3)cc1` (stereo not drawn) reads 131 °C. The result for `CC(C)(C)NC(=O)C(c1ccccc1)N(Cc1ccco1)C(=O)CNC(=O)OC(C)(C)C` (stereo not drawn) [Ugi product 206B(UC)] reads 203 °C. For `Clc1c(Cl)c(Cl)c(Cl)c(Cl)c1Cl` [hexachlorobenzene], the melting point was 230 °C and 229 °C.

`CCCCCCCCCCNCCCCCCCCCC` [di-n-decylamine] had a melting point of 37 °C. Next, `Nc1ccc(Cl)cc1N` [4-Chlorobenzene-1,2-diamine]: 68.5 °C. Next, `CCN(CC)CC` [triethylamine]: -115 °C; `Nc1ncnc(Nc2ccc(Cl)cc2)n1` [chlorazanil]: 233 °C; `Cc1cc(C)cc(B(O)O)c1` [3,5-dimethylbenzeneboronic acid]: 236 °C.

Take `COC(=O)c1ccc(F)cc1O` [methyl 4-fluorosalicylate]: the melting point is 39 °C. Next, `Nc1cc(-c2ccccc2)c(O)c(-c2ccccc2)c1` [5'-Amino-1,1':3',1''-terphenyl-2'-ol]: 149 °C; `CCC1=C(C)N=NC1C` (stereo not drawn) [4-ethyl-3,5-dimethyl-1H-pyrazole]: 43 °C. The result for `[O-][n+]1onc2ccccc21` [benzofuroxan] reads 69 °C; that for `O=CCc1ccccc1` [phenylacetaldehyde], -10 °C; that for `CCCCC1C(=O)N(c2ccccc2)N(c2ccccc2)C1=O` [Phenylbutazone], 107 °C. Next, `O=C(O)C(c1ccccc1)c1ccccc1` [diphenylacetic acid]: 147 °C; `O=C(O)c1cccc(O)c1O` [2,3-dihydroxybenzoic acid]: 206 °C; `Oc1c(Cl)cccc1Cl` [2,6-dichlorophenol]: 67 °C and 68.5 °C and 65 °C (2×). Molecule `N#Cc1ccc(N)cc1` [4-aminobenzonitrile] displayed a melting point of 85 °C. In the case of `CCCCCCCCCCCCCCCCCCN` [Octadecan-1-amine], the melting point was found to be 56 °C. On to `c1ccc(-c2ccccc2-c2ccccc2)cc1` [o-terphenyl], for which the melting point amounted to 57 °C. For `Oc1ccc2ccccc2c1-c1c(O)ccc2ccccc12` [1,1'-bi(2-naphthol)], the melting point worked out at 217 °C. In turn, `C(#Cc1ccccc1)c1ccccc1` [diphenylacetylene] showed a melting point of 60 °C. The result for `CC(=O)Nc1ccc(Cl)cc1` [4'-chloroacetanilide] reads 179 °C; that for `O=C(O)/C=C/c1ccccc1` [trans-cinnamic_acid], 133 °C. Next, `Oc1ccc(OCc2ccccc2)nc1` [2-benzyloxy-5-hydroxypyridine]: 92 °C; `O=C1c2ccccc2Cc2ccccc21` [anthrone]: 157 °C.

Turning to `CCc1ccc(OCC(=O)O)cc1` [4-ethylphenoxyacetic acid], the melting point is 93 °C.

`Cc1cc2[nH]c(C)cc(=O)n2n1` [2,5-dimethylpyrazolo[1,5-a]pyrimidin-7(4h)-one] returned a melting point of 253 °C. The result for `O=C(O)COC(=O)Cc1ccccc1Nc1c(Cl)cccc1Cl` [aceclofenac] reads 149 °C; that for `Fc1ccc(Cl)cc1` [1-chloro-4-fluorobenzene], -22 °C. Next, `c1cnc2c(c1)ccc1cccnc12` [1,10-phenanthroline, anhydrous]: 118 °C; `Sc1nc2ccccc2o1` [2-mercaptobenzoxazole]: 192 °C.

`CC(C)CCCC(C)C1CCC2C3CC=C4CC(Cl)CCC4(C)C3CCC12C` (stereo not drawn) [3-chlorocholest-5-ene] displayed a melting point of 93 °C.

With `C[C@]12CC[C@@H]3c4ccc(O)cc4CC[C@H]3[C@@H]1CC[C@@H]2O` [Estradiol], the melting point was found to be 176 °C.

The molecule `COc1ccc2c(c1)c1c3n2CCN(C)C3=NCC1` [metralindole] displayed a melting point of 164 °C. Next, `COc1cccc(OC)c1CN` [2,6-dimethoxybenzylamine]: 85 °C. Next, `COc1cc(B(O)O)cc(OC)c1OC` [3,4,5-trimethoxybenzeneboronic acid]: 245 °C; `OC[C@@H](O)[C@@H](O)[C@H](O)[C@H](O)CO` [mannitol]: 168 °C. The result for `CSSC` [dimethyl disulfide] reads -85 °C; that for `ClCCOc1ccccc1` [b-chlorophenetole], 28 °C.

On to `CN(C)C(=O)Nc1ccc(Cl)cc1` [Monuron], for which the melting point was found to be 174 °C. Turning to `CC(C(=O)O)c1ccc(-c2ccccc2)c(F)c1` (stereo not drawn) [2-fluoro-alpha-methyl-4-biphenylacetic acid], the melting point was found to be 113 °C.

`Cc1c(C(=O)OCC(N)=O)cnn1-c1ccccc1` [OSM-S-57] came in with a melting point of 154 °C. Next, `O=c1[nH]c2ccccc2n1C1CCN(CCCC(c2ccc(F)cc2)c2ccc(F)cc2)CC1` [pimozide]: 216 °C; `C1=CCCC1` [cyclopentene]: -135 °C. The result for `C1CC[C@H]2CCCC[C@H]2C1` [cis-decahydronaphthalene] reads -43 °C; that for `c1ccc2c(c1)CCCC2` [1,2,3,4-Tetrahydronaphthalene], -31 °C. Consider `CC(=O)C(=O)O` [Pyruvic acid], for which the melting point came to 11.8 °C. Next, `CCCCCCCl` [1-chlorohexane]: -94 °C; `CC(=O)Nc1ccccc1C#Cc1ccccc1` [N-[2-(phenylethynyl)phenyl]acetamide]: 119 °C; `O=C(O)Cc1cccc(C(F)(F)F)c1` [3-(trifluoromethyl)phenylacetic acid]: 78 °C. The result for `Cc1ccc(C(=O)c2ccccc2C(=O)O)cc1` [2-(4-toluoyl)benzoic acid] reads 138 °C; that for `CC(C)(O)CCc1ccccc1` [4-phenyl-2-methyl-2-butanol], 32 °C.

Turning to `C[C@@H]1O[C@H](OC[C@@H]2O[C@H](Oc3c(-c4ccc(O)c(O)c4)oc4cc(O)cc(O)c4c3=O)[C@@H](O)[C@H](O)[C@H]2O)[C@@H](O)[C@H](O)[C@H]1O` [Rutin], the melting point came out at 125 °C. The result for `CC(=O)NCO` [N-(hydroxymethyl)acetamide] reads 50 °C.

On to `C#CC(C)(C)C` [3,3-dimethyl-1-butyne], for which the melting point was -78 °C. For `Nc1ccc(Cl)cc1` [4-Chloroaniline], the melting point was found to be 72.5 °C. Regarding `O=C1NC(=O)C(c2ccccc2)(c2ccccc2)N1` [5,5-diphenylhydantoin], the melting point stood at 296 °C. As for `Cc1cc(C)cc(O)c1` [3,5-dimethylphenol], the melting point was 63.4 °C and 65.5 °C. In turn, `Nc1cc(Cl)cc(Cl)c1` [3,5-dichloroaniline] had a melting point of 53 °C.

Molecule `CS` [Methanethiol] came in with a melting point of -121 °C. The result for `Nc1ccc(Br)c(Cl)c1` [4-bromo-3-chloroaniline] reads 64 °C; that for `Oc1ccccc1-c1nc2ccccc2s1` [2-(2-hydroxyphenyl)benzothiazole], 132 °C; that for `CC(=O)c1ccc(C#N)cc1` [4-acetylbenzonitrile], 58 °C. The result for `O=C(CBr)c1ccc2ccccc2c1` [2-(bromoacetyl)naphthalene] reads 83 °C; that for `C(=C\c1nn2c(COc3ccccc3)nnc2s1)/c1ccccc1`, 142 °C; that for `CN(C)c1ccc([N+]([O-])=CC(=O)c2ccc(C(=O)C=[N+]([O-])c3ccc(N(C)C)cc3)cc2)cc1`, 133 °C.
